In general, Ki refers to a measure of affinity in units of concentration, obtained from inhibition or displacement.

The target in the test is T1, human Itk kinase (Homo sapiens, UniProt Q08881).
T1 sequence (Q08881 1-620): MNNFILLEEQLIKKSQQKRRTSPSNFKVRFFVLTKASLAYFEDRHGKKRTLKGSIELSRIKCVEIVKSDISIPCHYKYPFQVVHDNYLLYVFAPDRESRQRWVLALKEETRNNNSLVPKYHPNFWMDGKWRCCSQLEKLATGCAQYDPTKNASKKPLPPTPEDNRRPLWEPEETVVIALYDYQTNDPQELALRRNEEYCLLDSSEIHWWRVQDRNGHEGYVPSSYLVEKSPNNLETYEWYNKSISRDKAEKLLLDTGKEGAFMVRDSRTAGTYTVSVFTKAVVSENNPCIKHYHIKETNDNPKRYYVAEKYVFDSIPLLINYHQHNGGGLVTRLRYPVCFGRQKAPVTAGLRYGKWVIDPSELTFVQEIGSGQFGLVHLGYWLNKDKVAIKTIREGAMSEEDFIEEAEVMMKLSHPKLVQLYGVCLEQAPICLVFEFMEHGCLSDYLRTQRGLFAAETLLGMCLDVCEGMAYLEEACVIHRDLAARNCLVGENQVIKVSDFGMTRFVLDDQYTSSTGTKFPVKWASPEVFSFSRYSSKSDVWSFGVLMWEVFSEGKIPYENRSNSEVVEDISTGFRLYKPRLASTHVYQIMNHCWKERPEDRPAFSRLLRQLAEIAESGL
Nature of the test: Itk inhibition assay (radioactivity-based or spectrophotometric coupled enzyme assay). It is filed as biochemical. As to the method:
The compounds of the present invention can be evaluated as inhibitors of human Itk kinase using either a radioactivity-based or spectrophotometric assay. In general, compounds of the invention, including the compound in Table 1, are effective for the inhibition of ITK. Specifically, compound I.1 has a Ki value of <2 uM.
Assays are carried out in a mixture of 100 mM HEPES (pH 7.5), 10 mM MgCl2, 25 mM NaCl, 0.01% BSA and 1 mM DTT. Final substrate concentrations are 15 μM [γ-^33P]ATP (400 μCi ^33P ATP/μmol ATP, Amersham Pharmacia Biotech/Sigma Chemicals) and 2 μM peptide (SAM68 protein Δ332-443). Assays are carried out at 25° C. in the presence of 30 nM Itk. An assay stock buffer solution is prepared containing all of the reagents listed above, with the exception of ATP and the test compound of interest. […]
IC50 data are calculated from non-linear regression analysis of the initial rate data using the Prism software package (GraphPad Prism version 3.0cx for Macintosh, GraphPad Software, San Diego Calif., USA). […]
Ki(app) data are calculated from non-linear regression analysis of the initial rate data using the Prism software package (GraphPad Prism version 3.0cx for Macintosh, GraphPad Software, San Diego Calif., USA). […]

As to `O=c1[nH]cc(-c2ccccc2)cc1-c1cc2ccccc2[nH]1` [Compound I.1, 3-(1H-indol-2-yl)-5-phenylpyridin-2(1H)-one], the Ki is below 2 µM.
